What was measured:
rice [1] = test: Test B pre-/postemergence herbicide test; type: in vivo, Oryza sativa; conditions: 0 = no effect, 100 = complete control, preemergence
In short: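 Evaluation is visual, comparing treated with control plants on a scale where 0 means no effect and 100 means full control. Treatments were preemergence, or postemergence on seedlings 2–18 cm tall, and held 13–15 days in the greenhouse.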

large crabgrass = test: Test C pre-/postemergence herbicide test; type: in vivo, Digitaria sanguinalis; conditions: preemergence
In short: (§1)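 Seeds were planted and sprayed preemergence with test chemicals in a non-phytotoxic solvent mixture containing surfactant; postemergence treatments went onto plants 2 to 18 cm tall (1- to 4-leaf stage). After 12 to 14 days in a greenhouse, injury was rated visually against untreated controls on a 0–100 scale.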

woolly cupgrass = test: Test C pre-/postemergence herbicide test; type: in vivo, Eriochloa villosa; conditions: preemergence
In short: as §1

giant foxtail = test: Test C pre-/postemergence herbicide test; type: in vivo, Setaria faberi; conditions: preemergence
In short: as §1

pigweed = test: Test C pre-/postemergence herbicide test; type: in vivo, Amaranthus retroflexus; conditions: preemergence
In short: as §1

[2] = system: common (oilseed) sunflower; test: Test C pre-/postemergence herbicide test; type: in vivo, Helianthus annuus; conditions: preemergence
In short: as §1

rice [3] = test: Test C flooded paddy test; type: in vivo, Oryza sativa; conditions: for Plant response rating, Rice: 500 g ai/ha, visual rating after 12 to 14 days
In short: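 Plants were grown to the 1- to 4-leaf stage (2–18 cm) and then treated postemergence, or grown to the 2-leaf stage for the flooded paddy test. They were held in a greenhouse for 12 to 14 days and then scored by eye against controls, where 0 is no effect and 100 is complete control.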

[4] = system: smallflower umbrella sedge; test: Test C flooded paddy test; type: in vivo, Cyperus difformis; conditions: for Plant response rating, Sedge, Umbrella: 500 g ai/ha, visual rating after 12 to 14 days
lambsquarters = test: Test C pre-/postemergence herbicide test; type: in vivo, Chenopodium album; conditions: preemergence
In short: as §1

[5] = 125 g ai/ha, scale 0 (no effect) to 100 (complete control), visual, 12 to 14 days
[6] = 500 g ai/ha, scale 0 to 100 (0 no effect, 100 complete control), visual, 12 to 14 days
[7] = 62 g ai/ha, scale 0 to 100 (0 no effect, 100 complete control)
[8] = 125 g ai/ha, scale 0 to 100 (0 no effect, 100 complete control)
[9] = 250 g ai/ha, scale of 0 to 100, 0 is no effect, 100 is complete control
[10] = scale 0 to 100 (0 no effect, 100 complete control)

Row | SMILES | Plant response rating, Crabgrass, Large (large crabgrass; 62 g ai/ha, scale 0 to 100) | Plant response rating, Crabgrass, Large (large crabgrass; 250 g ai/ha, scale 0-100) | Plant response rating, Crabgrass, Large (large crabgrass; [6]) | Plant response rating, Cupgrass, Woolly (woolly cupgrass; 62 g ai/ha, scale 0 to 100) | Plant response rating, Cupgrass, Woolly (woolly cupgrass; 250 g ai/ha, scale 0-100) | Plant response rating, Cupgrass, Woolly (woolly cupgrass; [6]) | Plant response rating, Foxtail, Giant (giant foxtail; 62 g ai/ha, scale 0 to 100) | Plant response rating, Foxtail, Giant (giant foxtail; 250 g ai/ha, scale 0-100) | Plant response rating, Foxtail, Giant (giant foxtail; [6]) | Plant response rating, Pigweed (pigweed; 62 g ai/ha, scale 0 to 100) | Plant response rating, Pigweed (pigweed; [6]) | Plant response rating, Sunflower ([2]; 62 g ai/ha, scale 0 to 100) | Plant response rating, Sunflower [2, 6] | Rice plant response rating (rice [3]; [8]) | Rice plant response rating (rice [3]; [9]) | Plant response rating, Rice (rice [3]; [10]) | Sedge, Umbrella plant response rating [4, 8] | Sedge, Umbrella plant response rating [4, 9] | Plant response rating, Sedge, Umbrella [4, 10] | other results
1 | CCn1nc(C(C)(C)C)cc1C(=O)Nc1cc(C(=O)N2CCCC2)ccc1F [Compound 242] | 100 | 100 | 100 | 75 | 95 | 100 | 85 | 100 | 100 | 100 | 100 | 0 | 95 | 85 | 90 | 90 | 75 | 85 | 85 | Rice plant response rating (0 to 100 scale) (rice [1]; 125 g ai/ha): 50; Plant response rating, Rice (rice [1]; 500 g ai/ha, visual rating): 80; Plant response rating, Crabgrass, Large (large crabgrass; [5]): 100; Plant response rating, Cupgrass, Woolly (woolly cupgrass; [5]): 80; Plant response rating, Foxtail, Giant (giant foxtail; [5]): 100; Plant response rating, Pigweed (pigweed; [5]): 100; Plant response rating, Pigweed (pigweed; 250 g ai/ha, scale 0-100): 100; Plant response rating, Sunflower ([2]; 250 g ai/ha, scale 0-100): 50; Rice plant response rating (rice [3]; [7]): 50; Sedge, Umbrella plant response rating [4, 7]: 45
2 | CCNC(=O)c1ccc(F)c(N(C(C)=O)C(=O)c2cc(C(C)(C)C)nn2CC)c1 [Compound 399] | 100 | 100 | 100 | 45 | 80 | 95 | 95 | 100 | 100 | 100 | 100 | 0 | 35 | 65 | 75 | 75 | 70 | 85 | 85 | Plant response rating (0 = no effect, 100 = complete control), Crabgrass, Large (large crabgrass; 125 g ai/ha): 100; Plant response rating (0 = no effect, 100 = complete control), Cupgrass, Woolly (woolly cupgrass; 125 g ai/ha): 65; Plant response rating (0 = no effect, 100 = complete control), Foxtail, Giant (giant foxtail; 125 g ai/ha): 100; Plant response rating, Lambsquarters (lambsquarters; 62 g ai/ha, scale 0 to 100): 100; Plant response rating (0 = no effect, 100 = complete control), Lambsquarters (lambsquarters; 125 g ai/ha): 100; Plant response rating, Lambsquarters (lambsquarters; 250 g ai/ha, scale 0-100): 100; Plant response rating, Lambsquarters (lambsquarters; [6]): 100; Plant response rating (0 = no effect, 100 = complete control), Pigweed (pigweed; 125 g ai/ha): 100; Plant response rating (0 = no effect, 100 = complete control), Sunflower ([2]; 125 g ai/ha): 0; Rice plant response rating (rice [3]; 62 g ai/ha, scale 0 to 100): 65; Sedge, Umbrella plant response rating ([4]; 62 g ai/ha, scale 0 to 100): 65
